# Test results: PubChem BioAssay AID1963986 (Molecular Pharmacology Branch, DTP, NCI, 2024)
# Test system: 171881-019-R-J1-PDC tumor spheroid viability
# Test: Anticancer human tumor 171881-019-R-J1-PDC patient-derived invasive breast carcinoma cell line growth inhibition [PI3K]
# Settings: spheroids with HUVEC and MSC; for IC50: curve of first compound; for viability, T/C: stronger effect = lower value
# In short: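 Three cell types, namely tumor cells, endothelial cells and mesenchymal stem cells, formed each spheroid. Combinations with four PI3K inhibitors were screened at clinically achievable concentrations decreasing by half-log, and spheroid viability was recorded.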
# [1] = second compound 0.00316 µM, first compound 0.0316 µM
# [2] = second compound 0.00316 µM, first compound 0.1 µM
# [3] = second compound 0.00316 µM, first compound 0.316 µM
# [4] = second compound 0.00316 µM, first compound 1 µM
# [5] = second compound 0.00316 µM, first compound 3.16 µM
# [6] = second compound 0.00316 µM, first compound 10 µM
# [7] = second compound 0.01 µM, first compound 0.0316 µM
# [8] = second compound 0.01 µM, first compound 0.1 µM
# [9] = second compound 0.01 µM, first compound 0.316 µM
# [10] = second compound 0.01 µM, first compound 1 µM
# [11] = second compound 0.01 µM, first compound 3.16 µM
# [12] = second compound 0.01 µM, first compound 10 µM
# [13] = second compound 0.0316 µM, first compound 0.0316 µM
# [14] = second compound 0.0316 µM, first compound 0.1 µM
# [15] = second compound 0.0316 µM, first compound 0.316 µM
# [16] = second compound 0.0316 µM, first compound 1 µM
# [17] = second compound 0.0316 µM, first compound 3.16 µM
# [18] = second compound 0.0316 µM, first compound 10 µM
# [19] = second compound 0.1 µM, first compound 0.0316 µM
# [20] = second compound 0.1 µM, first compound 0.1 µM
# [21] = second compound 0.1 µM, first compound 0.316 µM
# [22] = second compound 0.1 µM, first compound 1 µM
# [23] = second compound 0.1 µM, first compound 3.16 µM
# [24] = second compound 0.1 µM, first compound 10 µM
# [25] = second compound 0.316 µM, first compound 0.0316 µM
# [26] = second compound 0.316 µM, first compound 0.1 µM
# [27] = second compound 0.316 µM, first compound 0.316 µM
# [28] = second compound 0.316 µM, first compound 1 µM
# [29] = second compound 0.316 µM, first compound 3.16 µM
# [30] = second compound 0.316 µM, first compound 10 µM
# [31] = second compound 1 µM, first compound 0.0316 µM
# [32] = second compound 1 µM, first compound 0.1 µM
# [33] = second compound 1 µM, first compound 0.316 µM
# [34] = second compound 1 µM, first compound 1 µM
# [35] = second compound 1 µM, first compound 3.16 µM
# [36] = second compound 1 µM, first compound 10 µM
# 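Further: spheroids exposed to compound for 7 days before viability read.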
# 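Wherever viability, T/C is given: 100% = DMSO vehicle-treated spheroids.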
smiles,measurement,setting,value
C#Cc1c(F)ccc2cc(O)cc(-c3ncc4c(N5CC6CCC(C5)N6)nc(OCC56CCCN5CC(F)C6)nc4c3F)c12 (centres undefined) + COc1c(OCCCN2CCOCC2)ccc2c3n(c(=NC(=O)c4cnc(N)nc4)nc12)CCN3,IC50,second compound 0.00316 µM,0.0613 µM
same,IC50,second compound 0.01 µM,< 0.0316 µM
same,IC50,second compound 0.0316 µM,< 0.0316 µM
same,IC50,second compound 0.1 µM,< 0.0316 µM
same,IC50,second compound 0.316 µM,< 0.0316 µM
same,IC50,second compound 1 µM,< 0.0316 µM
same,"viability, T/C",[1],53.6%
same,"viability, T/C",[2],48.2%
same,"viability, T/C",[3],30%
same,"viability, T/C",[4],20.7%
same,"viability, T/C",[5],15.8%
same,"viability, T/C",[6],12.8%
same,"viability, T/C",[7],38.2%
same,"viability, T/C",[8],31.8%
same,"viability, T/C",[9],20.4%
same,"viability, T/C",[10],15.1%
same,"viability, T/C",[11],10.3%
same,"viability, T/C",[12],9.69%
same,"viability, T/C",[13],18.9%
same,"viability, T/C",[14],14.8%
same,"viability, T/C",[15],10%
same,"viability, T/C",[16],6.62%
same,"viability, T/C",[17],5.52%
same,"viability, T/C",[18],4.3%
same,"viability, T/C",[19],6.23%
same,"viability, T/C",[20],4.84%
same,"viability, T/C",[21],3.8%
same,"viability, T/C",[22],3.03%
same,"viability, T/C",[23],2.87%
same,"viability, T/C",[24],1.74%
same,"viability, T/C",[25],1.68%
same,"viability, T/C",[26],1.75%
same,"viability, T/C",[27],1.34%
same,"viability, T/C",[28],1.08%
same,"viability, T/C",[29],0.99%
same,"viability, T/C",[30],0.17%
same,"viability, T/C",[31],0.8%
same,"viability, T/C",[32],0.83%
same,"viability, T/C",[33],0.78%
same,"viability, T/C",[34],0.83%
same,"viability, T/C",[35],0.68%
same,"viability, T/C",[36],0.29%
CC1(C)CCC(Nc2ncc(C(F)(F)F)c(-c3c[nH]c4c(P(C)(C)=O)c(C#N)ccc34)n2)CN1 (centres undefined) + COc1c(OCCCN2CCOCC2)ccc2c3n(c(=NC(=O)c4cnc(N)nc4)nc12)CCN3,IC50,second compound 0.00316 µM,4 µM
same,IC50,second compound 0.01 µM,< 0.0316 µM
same,IC50,second compound 0.0316 µM,< 0.0316 µM
same,IC50,second compound 0.1 µM,< 0.0316 µM
same,IC50,second compound 0.316 µM,< 0.0316 µM
same,IC50,second compound 1 µM,< 0.0316 µM
same,"viability, T/C",[1],51.9%
same,"viability, T/C",[2],57.2%
same,"viability, T/C",[3],60.6%
same,"viability, T/C",[4],69%
same,"viability, T/C",[5],63.2%
same,"viability, T/C",[6],9.56%
same,"viability, T/C",[7],44.6%
same,"viability, T/C",[8],49.3%
same,"viability, T/C",[9],50.9%
same,"viability, T/C",[10],55.3%
same,"viability, T/C",[11],45.5%
same,"viability, T/C",[12],3.97%
same,"viability, T/C",[13],23.4%
same,"viability, T/C",[14],27.9%
same,"viability, T/C",[15],27.1%
same,"viability, T/C",[16],33.2%
same,"viability, T/C",[17],23.2%
same,"viability, T/C",[18],1.05%
same,"viability, T/C",[19],11.1%
same,"viability, T/C",[20],11.1%
same,"viability, T/C",[21],11.3%
same,"viability, T/C",[22],12.7%
same,"viability, T/C",[23],7.29%
same,"viability, T/C",[24],0.37%
same,"viability, T/C",[25],2.05%
same,"viability, T/C",[26],1.65%
same,"viability, T/C",[27],1.41%
same,"viability, T/C",[28],1.53%
same,"viability, T/C",[29],0.65%
same,"viability, T/C",[30],0.12%
same,"viability, T/C",[31],1.55%
same,"viability, T/C",[32],0.66%
same,"viability, T/C",[33],0.6%
same,"viability, T/C",[34],0.51%
same,"viability, T/C",[35],1.51%
same,"viability, T/C",[36],0.25%
